Data taken from patent US6355799B1, “Substituted benzene compounds, process for their preparation, and herbicidal and defoliant compositions containing them” (ISK Americas Incorporated, priority 1997, dated 2002).

What was measured:
Format in all cases: in vivo
[1] = system: upland rice (Oryza sp., var. Tebonnet, RICE); experiment: Post-emerge test, crop safety; details: rating scale 0-100 (0 no damage, 100 complete death), 14 days after application
Summary of the method: (§1)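 Applied at 15–1000 g ai/ha from acetone in 187 l/ha spray volume. Post-emergence applications included 0.25% v/v non-ionic surfactant and reached plants sown 8–21 days before. Pre-emergence applications were incorporated by surface watering. Efficacy or crop damage was rated on a 0–100 scale after 14 days.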

[2] = system: field corn (Zea mays L., var. Dekalb 535, CORN); experiment: Post-emerge test, crop safety; details: rating scale 0-100 (0 no damage, 100 complete death), 14 days after application
Summary of the method: as §1

[3] = system: upland rice (Oryza sp., var. Tebonnet, RICE); experiment: Pre-emerge test, crop safety; details: rating scale 0-100, 14 days after application
Summary of the method: (§2)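 Herbicidal damage is scored 0 (none) to 100 (complete plant death) two weeks after a simulated field spray. Rates span 15–1000 g ai/ha, delivered in acetone at 187 l/ha. For post-emergence treatments, plants have 2–3 leaves and the spray carries 0.25% v/v non-ionic surfactant.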

[4] = system: field corn (Zea mays L., var. Dekalb 535, CORN); experiment: Pre-emerge test, crop safety; details: rating scale 0-100, 14 days after application
Summary of the method: as §2

[5] = system: velvetleaf (Abutilon theophrasti, ABUTH); experiment: Post-emerge test, greenhouse herbicide activity screening; details: rating scale 0-100 (0 no damage, 100 complete death), 14 days after application
Summary of the method: (§3)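 Compounds in acetone were track-sprayed at 187 l/ha, 15–1000 g ai/ha, onto sandy loam pots. Pre-emerge seeds were sown one day before spraying, with surface watering afterwards. Post-emerge plants were at the 2–3 leaf stage and sprayed with 0.25% v/v non-ionic surfactant. Injury was rated 0–100 at 14 days.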

[6] = system: redroot pigweed (Amaranthus retroflexus, AMARE); experiment: as above; details: rating scale 0-100 (0 no damage, 100 complete death), 14 days after application
Summary of the method: as §3

[7] = system: large crabgrass (Digitaria sanguinalis, DIGSA); experiment: as above; details: rating scale 0-100 (0 no damage, 100 complete death), 14 days after application
Summary of the method: as §3

[8] = system: johnsongrass (Sorghum halepense, SORHA); experiment: as above; details: rating scale 0-100 (0 no damage, 100 complete death), 14 days after application
Summary of the method: as §3

[9] = system: lambsquarters (Chenopodium album, CHEAL); experiment: as above; details: rating scale 0-100 (0 no damage, 100 complete death), 14 days after application
Summary of the method: as §3

[10] = system: sicklepod (Cassia obtusifolia, CASOB); experiment: as above; details: rating scale 0-100 (0 no damage, 100 complete death), 14 days after application
Summary of the method: as §3

[11] = system: green foxtail (Setaria viridis, SETVI); experiment: as above; details: rating scale 0-100 (0 no damage, 100 complete death), 14 days after application
Summary of the method: as §3

[12] = system: barnyardgrass (Echinochloa crus-galli, ECHCG); experiment: as above; details: rating scale 0-100 (0 no damage, 100 complete death), 14 days after application
Summary of the method: as §3

[13] = system: ivyleaf morningglory (Ipomoea hederacea, IPOHE); experiment: as above; details: rating scale 0-100 (0 no damage, 100 complete death), 14 days after application
Summary of the method: as §3

[14] = system: velvetleaf (Abutilon theophrasti, ABUTH); experiment: Pre-emerge test, greenhouse herbicide activity screening; details: rating scale 0-100, 14 days after application
Summary of the method: as §1

[15] = system: large crabgrass (Digitaria sanguinalis, DIGSA); experiment: as above; details: rating scale 0-100, 14 days after application
Summary of the method: as §1

[16] = system: johnsongrass (Sorghum halepense, SORHA); experiment: as above; details: rating scale 0-100, 14 days after application
Summary of the method: as §1

[17] = system: lambsquarters (Chenopodium album, CHEAL); experiment: as above; details: rating scale 0-100, 14 days after application
Summary of the method: as §1

[18] = system: sicklepod (Cassia obtusifolia, CASOB); experiment: as above; details: rating scale 0-100, 14 days after application
Summary of the method: as §1

[19] = system: green foxtail (Setaria viridis, SETVI); experiment: as above; details: rating scale 0-100, 14 days after application
Summary of the method: as §1

[20] = system: barnyardgrass (Echinochloa crus-galli, ECHCG); experiment: as above; details: rating scale 0-100, 14 days after application
Summary of the method: as §1

[21] = system: ivyleaf morningglory (Ipomoea hederacea, IPOHE); experiment: as above; details: rating scale 0-100, 14 days after application
Summary of the method: as §1

[22] = system: redroot pigweed (Amaranthus retroflexus, AMARE); experiment: as above; details: rating scale 0-100, 14 days after application
Summary of the method: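 Sandy loam pots; pre-emerge: sown 1 d pre-spray, surface-watered after, then bottom-watered. Post-emerge: sown 8–21 d before, 2–3 leaf stage, + 0.25% v/v NIS, bottom-watered. Acetone, 187 l/ha track spray, 15–1000 g ai/ha. 0–100 injury score, day 14.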

SMILES: COc1c(Cl)cc(F)c(-n2c(=O)cc(C(F)(F)F)n(C)c2=O)c1CC(Cl)C(=O)OCC(Br)CBr (single isomer, unassigned) [14-30]
- Post-emerge phytotoxicity rating RICE (crop damage) ([1]; Rate 63 g ai/ha): 0
- Post-emerge phytotoxicity rating RICE (crop damage) ([1]; Rate 250 g ai/ha): 0
- Post-emerge phytotoxicity rating CORN (crop damage) ([2]; Rate 63 g ai/ha): 10
- Post-emerge phytotoxicity rating CORN (crop damage) ([2]; Rate 250 g ai/ha): 20
- Pre-emerge phytotoxicity rating, crop damage RICE ([3]; 63 g ai/ha): 0
- Pre-emerge phytotoxicity rating, crop damage RICE ([3]; 250 g ai/ha): 0
- Pre-emerge phytotoxicity rating, crop damage CORN ([4]; 63 g ai/ha): 0
- Pre-emerge phytotoxicity rating, crop damage CORN ([4]; 250 g ai/ha): 0
- Post-emerge Herbicidal Activity, phytotoxicity rating ABUTH ([5]; Rate 63 g ai/ha): 60
- Post-emerge Herbicidal Activity, phytotoxicity rating ABUTH ([5]; Rate 250 g ai/ha): 100
- Post-emerge Herbicidal Activity, phytotoxicity rating AMARE ([6]; Rate 63 g ai/ha): 70
- Post-emerge Herbicidal Activity, phytotoxicity rating AMARE ([6]; Rate 250 g ai/ha): 100
- Post-emerge Herbicidal Activity, phytotoxicity rating DIGSA ([7]; Rate 63 g ai/ha): 60
- Post-emerge Herbicidal Activity, phytotoxicity rating DIGSA ([7]; Rate 250 g ai/ha): 100
- Post-emerge Herbicidal Activity, phytotoxicity rating SORHA ([8]; Rate 63 g ai/ha): 0
- Post-emerge Herbicidal Activity, phytotoxicity rating SORHA ([8]; Rate 250 g ai/ha): 50
- Post-emerge Herbicidal Activity, phytotoxicity rating CHEAL ([9]; Rate 63 g ai/ha): 50
- Post-emerge Herbicidal Activity, phytotoxicity rating CHEAL ([9]; Rate 250 g ai/ha): 100
- Post-emerge Herbicidal Activity, phytotoxicity rating CASOB ([10]; Rate 63 g ai/ha): 20
- Post-emerge Herbicidal Activity, phytotoxicity rating CASOB ([10]; Rate 250 g ai/ha): 60
- Post-emerge Herbicidal Activity, phytotoxicity rating SETVI ([11]; Rate 63 g ai/ha): 0
- Post-emerge Herbicidal Activity, phytotoxicity rating SETVI ([11]; Rate 250 g ai/ha): 30
- Post-emerge Herbicidal Activity, phytotoxicity rating ECHCG ([12]; Rate 63 g ai/ha): 100
- Post-emerge Herbicidal Activity, phytotoxicity rating ECHCG ([12]; Rate 250 g ai/ha): 100
- Post-emerge Herbicidal Activity, phytotoxicity rating IPOHE ([13]; Rate 63 g ai/ha): 0
- Post-emerge Herbicidal Activity, phytotoxicity rating IPOHE ([13]; Rate 250 g ai/ha): 50
- Pre-emerge herbicidal activity, phytotoxicity rating ABUTH ([14]; 63 g ai/ha): 0
- Pre-emerge herbicidal activity, phytotoxicity rating ABUTH ([14]; 250 g ai/ha): 50
- Pre-emerge herbicidal activity, phytotoxicity rating DIGSA ([15]; 63 g ai/ha): 0
- Pre-emerge herbicidal activity, phytotoxicity rating DIGSA ([15]; 250 g ai/ha): 90
- Pre-emerge herbicidal activity, phytotoxicity rating SORHA ([16]; 63 g ai/ha): 0
- Pre-emerge herbicidal activity, phytotoxicity rating SORHA ([16]; 250 g ai/ha): 0
- Pre-emerge herbicidal activity, phytotoxicity rating CHEAL ([17]; 63 g ai/ha): 0
- Pre-emerge herbicidal activity, phytotoxicity rating CHEAL ([17]; 250 g ai/ha): 80
- Pre-emerge herbicidal activity, phytotoxicity rating CASOB ([18]; 63 g ai/ha): 0
- Pre-emerge herbicidal activity, phytotoxicity rating CASOB ([18]; 250 g ai/ha): 0
- Pre-emerge herbicidal activity, phytotoxicity rating SETVI ([19]; 63 g ai/ha): 0
- Pre-emerge herbicidal activity, phytotoxicity rating SETVI ([19]; 250 g ai/ha): 0
- Pre-emerge herbicidal activity, phytotoxicity rating ECHCG ([20]; 63 g ai/ha): 0
- Pre-emerge herbicidal activity, phytotoxicity rating ECHCG ([20]; 250 g ai/ha): 0
- Pre-emerge herbicidal activity, phytotoxicity rating IPOHE ([21]; 63 g ai/ha): 0
- Pre-emerge herbicidal activity, phytotoxicity rating IPOHE ([21]; 250 g ai/ha): 0
- Pre-emerge herbicidal activity, phytotoxicity rating AMARE ([22]; 63 g ai/ha): 70
- Pre-emerge herbicidal activity, phytotoxicity rating AMARE ([22]; 250 g ai/ha): 100
